Measured values published in patent US12570666B2, “Furoindazole derivatives” (Bayer Aktiengesellschaft, priority 2019, dated 2026).

Target: T1, human GPR84 receptor (Homo sapiens, UniProt Q9NQS5)
T1 construct: frozen aliquots prepared by acCELLerate; host or cells: CHO-K1
Assay: cAMP HTRF assay for identification of cellular GPR84 antagonists
Type: cell-based
Conditions: CHO-K1 cells stably expressing human GPR84; Forskolin + agonist 6-OAU (EC80); average or median values
How it was run: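 IC50 came from 4-parameter fits over 20 μM–0.07 nM (11 points, duplicate), normalized between DMSO (0%) and agonist-free (100% inhibition) wells. Readout: cAMP-d2/Eu-cryptate HTRF in hGPR84 CHO-K1 cells given forskolin plus agonist, compound preincubated 30 min at room temperature.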

T1 sequence (Q9NQS5 whole entry): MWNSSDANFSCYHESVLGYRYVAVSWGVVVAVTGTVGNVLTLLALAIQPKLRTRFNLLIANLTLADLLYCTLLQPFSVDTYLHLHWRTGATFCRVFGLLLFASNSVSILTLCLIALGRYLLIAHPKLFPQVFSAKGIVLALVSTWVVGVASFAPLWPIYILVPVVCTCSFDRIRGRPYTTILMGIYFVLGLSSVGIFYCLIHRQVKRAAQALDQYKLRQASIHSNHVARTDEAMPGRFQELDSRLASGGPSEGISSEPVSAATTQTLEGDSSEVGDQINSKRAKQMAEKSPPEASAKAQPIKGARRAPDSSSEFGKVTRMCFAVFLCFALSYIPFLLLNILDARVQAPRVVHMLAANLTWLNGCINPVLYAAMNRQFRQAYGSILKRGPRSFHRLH

SMILES | IC50
O=C(NC[C@@H]1CCCO1)c1oc2c(c1C(F)(F)F)-c1nn(CC3CCN(C(=O)c4ccccc4)CC3)cc1CC2 [Example 288, 2-[(1-benzoylpiperidin-4-yl)methyl]-N-{[(2S)-oxolan-2-yl]methyl}-8-(trifluoromethyl)-4,5-dihydro-2H-furo[2,3-g]indazole-7-carboxamide] | 101 nM
Cc1cccc(Cn2cc3c(n2)-c2c(oc(C(=O)NCCN4CCC4)c2C)CC3)n1 [Example 67, N-[2-(azetidin-1-yl)ethyl]-8-methyl-2-[(6-methylpyridin-2-yl)methyl]-4,5-dihydro-2H-furo[2,3-g]indazole-7-carboxamide] | 1810 nM
Cc1c(C(=O)NC[C@@H]2COCCO2)oc2c1-c1nn(CCNC(=O)OC(C)(C)C)cc1CC2 [Example 140, tert-butyl [2-(7-{[(2R)-1,4-dioxan-2-ylmethyl]carbamoyl}-8-methyl-4,5-dihydro-2H-furo[2,3-g]indazol-2-yl)ethyl]carbamate] | 83 nM
Cc1c(C(=O)NCc2cc(-c3ccccc3Cl)on2)oc2c1-c1nn(Cc3ccccn3)cc1CC2 [Example 17, N-{[5-(2-chlorophenyl)-1,2-oxazol-3-yl]methyl}-8-methyl-2-(pyridin-2-ylmethyl)-4,5-dihydro-2H-furo[2,3-g]indazole-7-carboxamide] | 10100 nM
Cc1c(C(=O)NC[C@@H]2CCCO2)oc2c1-c1nn(CC3COC3)cc1CC2 [Example 91, 8-methyl-2-(oxetan-3-ylmethyl)-N-[(2S)-tetrahydrofuran-2-ylmethyl]-4,5-dihydro-2H-furo[2,3-g]indazole-7-carboxamide] | 64 nM
Cc1c(C(=O)NC[C@@H]2CCCO2)oc2c1-c1nn(CCN3CCNCC3)cc1CC2 [Example 162, 8-methyl-2-[2-(piperazin-1-yl)ethyl]-N-[(2S)-tetrahydrofuran-2-ylmethyl]-4,5-dihydro-2H-furo[2,3-g]indazole-7-carboxamide] | 6740 nM
Cc1c(C(=O)NC[C@@H]2CCCO2)oc2c1-c1nn(Cc3ccc(C(F)(F)F)cn3)cc1CC2 [Example 57, 8-methyl-N-[(2S)-tetrahydrofuran-2-ylmethyl]-2-{[5-(trifluoromethyl)pyridin-2-yl]methyl}-4,5-dihydro-2H-furo[2,3-g]indazole-7-carboxamide] | 190 nM
Cc1cc(Cn2cc3c(n2)-c2c(oc(C(=O)NC[C@@H]4CCCO4)c2C)CC3)cc(C)n1 [Example 81, 2-[(2,6-dimethylpyridin-4-yl)methyl]-8-methyl-N-[(2S)-tetrahydrofuran-2-ylmethyl]-4,5-dihydro-2H-furo[2,3-g]indazole-7-carboxamide] | 380 nM
Cc1c(C(=O)NC[C@@H]2CCCO2)oc2c1-c1nn(Cc3ccc(C#N)cn3)cc1CC2 [Example 319, 2-[(5-cyanopyridin-2-yl)methyl]-8-methyl-N-{[(2S)-oxolan-2-yl]methyl}-4,5-dihydro-2H-furo[2,3-g]indazole-7-carboxamide] | 1120 nM
Cc1c(C(=O)NC[C@@H]2CCCO2)oc2c1-c1nn(C[C@H]3COCCO3)cc1C1(CCC1)C2 [Example 143, 2′-[(2S)-1,4-dioxan-2-ylmethyl]-8′-methyl-N-[(2S)-tetrahydrofuran-2-ylmethyl]-2′,5′-dihydrospiro[cyclobutane-1,4′-furo[2,3-g]indazole]-7′-carboxamide] | 77 nM
Cc1nonc1CNC(=O)c1oc2c(c1C)-c1nn(Cc3ccccn3)cc1CC2 [Example 15, 8-methyl-N-[(4-methyl-1,2,5-oxadiazol-3-yl)methyl]-2-(pyridin-2-ylmethyl)-4,5-dihydro-2H-furo[2,3-g]indazole-7-carboxamide] | 2000 nM
O=C(NC[C@H]1COCCO1)c1oc2c(c1C(F)(F)F)-c1nn(C[C@H]3COCCO3)cc1CC2 [Example 300, N,2-bis{[(2S)-1,4-dioxan-2-yl]methyl}-8-(trifluoromethyl)-4,5-dihydro-2H-furo[2,3-g]indazole-7-carboxamide] | 322 nM
Cc1c(C(=O)NC[C@@H]2COCCO2)oc2c1-c1nn(C[C@H]3COCCO3)cc1[C@H](C(F)(F)F)C2 (single isomer, unassigned) [Example 265-2, (4R or 4S)-N-{(2R)-1 ,4-dioxan-2-yl]methyl}-2-{[(2S)-1,4-dioxan-2-yl]methyl}-8-methyl-4-(trifluoromethyl)-4,5-dihydro-2H-furo[2,3-g]indazole-7-carboxamide] | 1210 nM
Cc1c(C(=O)NCCN2CC(C)(C)C2=O)oc2c1-c1nn(Cc3ccccn3)cc1CC2 [Example 28, N-[2-(3,3-dimethyl-2-oxoazetidin-1-yl)ethyl]-8-methyl-2-(pyridin-2-ylmethyl)-4,5-dihydro-2H-furo[2,3-g]indazole-7-carboxamide] | 4570 nM
Cc1c(C(=O)NCC2(C)CCCO2)oc2c1-c1nn(Cc3ccccn3)cc1CC2 (racemic) [Example 173] | 7070 nM
Cc1c(C(=O)NC[C@@H]2CCCO2)oc2c1-c1nn(CC3CC3)cc1C1(CC1)C2 [Example 129, 2′-(cyclopropylmethyl)-8′-methyl-N-[(2S)-tetrahydrofuran-2-ylmethyl]-2′,5′-dihydrospiro[cyclopropane-1,4′-furo[2,3-g]indazole]-7′-carboxamide] | 55 nM
Cc1cccnc1Cn1cc2c(n1)-c1c(oc(C(=O)NC[C@@H]3COCCO3)c1C)CC2 [Example 63, N-[(2R)-1,4-dioxan-2-ylmethyl]-8-methyl-2-[(3-methylpyridin-2-yl)methyl]-4,5-dihydro-2H-furo[2,3-g]indazole-7-carboxamide] | 60 nM
Cc1cccc(CNC(=O)c2oc3c(c2C(F)(F)F)-c2nn(C[C@H]4COCCO4)cc2CC3)n1 [Example 238, 2-[(2S)-1,4-Dioxan-2-ylmethyl]-N-[(6-methylpyridin-2-yl)methyl]-8-(trifluormethyl)-4,5-dihydro-2H-furo[2,3-g]indazol-7-carboxamide] | 500 nM
Cc1c(C(=O)NCCN2CCN(C)CC2)oc2c1-c1nn(CC3COc4ncccc4O3)cc1CC2 (racemic) [Example 54, 2-[(2R/S)-2,3-dihydro[1,4]dioxino[2,3-b]pyridin-2-ylmethyl]-8-methyl-N-[2-(4-methylpiperazin-1-yl)ethyl]-4,5-dihydro-2H-furo[2,3-g]indazole-7-carboxamide] | 550 nM
Cc1c(C(=O)NC[C@@H]2COCCO2)oc2c1-c1nn(C[C@H]3COCCO3)cc1CC2 [Example 90, N-[(2R)-1,4-dioxan-2-ylmethyl]-2-[(2S)-1,4-dioxan-2-ylmethyl]-8-methyl-4,5-dihydro-2H-furo[2,3-g]indazole-7-carboxamide] | 47 nM

More lines, in order of falling IC50, values ahead:

IC50 | SMILES
46 nM | CC1Cc2oc(C(=O)NC[C@@H]3COCCO3)c(C(F)(F)F)c2-c2nn(C[C@H]3COCCO3)cc21 (single isomer, unassigned) [Example 254-2, (4R or 4S)-N-{[(2R)-1,4-dioxan-2-yl]methyl}-2-{[(2S)-1,4-dioxan-2-yl]methyl}-4-methyl-8-(trifluoromethyl)-4,5-dihydro-2H-furo[2,3-g]indazole-7-carboxamide]
43 nM | Cc1c(C(=O)NCc2ccon2)oc2c1-c1nn(CC3COc4ncccc4O3)cc1CC2 (single isomer, unassigned) [Example 55-2]
40 nM | CCc1ccc(Cn2cc3c(n2)-c2c(oc(C(=O)NC[C@@H]4COCCO4)c2C)CC3)cn1 [Example 187]
38 nM | CC1(C)Cc2oc(C(=O)NC[C@@H]3CCCO3)c(C(F)(F)F)c2-c2nn(C[C@H]3COCCO3)cc21 [Example 268, 2-{[(2S)-1,4-dioxan-2-yl]methyl}-4,4-dimethyl-N-{[(2S)-oxolan-2-yl]methyl}-8-(trifluoromethyl)-4,5-dihydro-2H-furo[2,3-g]indazole-7-carboxamide]
25 nM | [2H]C([2H])(c1ccccc1)n1cc2c(n1)-c1c(oc(C(=O)NC[C@@H]3COCCO3)c1C)CC2 [Example 136, N-[(2R)-1,4-dioxan-2-ylmethyl]-8-methyl-2-[phenyl(^2H2)methyl]-4,5-dihydro-2H-furo[2,3-g]indazole-7-carboxamide]
17 nM | CC1Cc2oc(C(=O)NC[C@@H]3COCCO3)c(C(F)(F)F)c2-c2nn(Cc3ccccn3)cc21 (mixture of isomers) [Example 250, (4±)-N-{[(2R)-1,4-dioxan-2-yl]methyl}-4-methyl-2-[(pyridin-2-yl)methyl]-8-(trifluoromethyl)-4,5-dihydro-2H-furo[2,3-g]indazole-7-carboxamide]
16 nM | Cc1ccc(Cn2cc3c(n2)-c2c(oc(C(=O)NC[C@@H]4COCCO4)c2C)CC32CC2)cn1 [Example 210]
12 nM | O=C(NC[C@H]1CC(F)(F)CO1)c1oc2c(c1C(F)(F)F)-c1nn(C[C@H]3COCCO3)cc1CC2 (single isomer, unassigned) [Example 222-1, N-{[(2R or 2S)-4,4-difluorooxolan-2-yl]methyl}-2-{[(2S)-1,4-dioxan-2-yl]methyl}-8-(trifluoromethyl)-4,5-dihydro-2H-furo[2,3-g]indazole-7-carboxamide]
9 nM | Cc1c(C(=O)NC[C@@H]2CCCO2)oc2c1-c1nn(CC3CN(C(=O)OCc4ccccc4)C3)cc1CC2 [Example 156, benzyl 3-[(8-methyl-7-{[(2S)-tetrahydrofuran-2-ylmethyl]carbamoyl}-4,5-dihydro-2H-furo[2,3-g]indazol-2-yl)methyl]azetidine-1-carboxylate]
8 nM | Cc1ccc(Cn2cc3c(n2)-c2c(oc(C(=O)NC[C@@H]4CCCO4)c2C(F)(F)F)CC32CCC2)nc1 [Example 277, 2′-[(5-Methylpyridin-2-yl)methyl]-N-[(2S)-tetrahydrofuran-2-ylmethyl]-8′-(trifluormethyl)-2′,5′-dihydrospiro[cyclobutan-1,4′-furo[2,3-g]indazol]-7′-carboxamide]
5 nM | Cc1ccc(Cn2cc3c(n2)-c2c(oc(C(=O)NC[C@@H]4CCCO4)c2C(F)(F)F)CC32CC2)nc1 [Example 214, 2′-[(5-methylpyridin-2-yl)methyl]-N-{[(2S)-oxolan-2-yl]methyl}-8′-(trifluoromethyl)-2′,5′-dihydrospiro[cyclopropane-1,4′-furo[2,3-g]indazole]-7′-carboxamide]
